Laboratory results from patent publication US20050260290A1, “Botanical anti-inflammatory compositions and methods” (RUTGERS, THE STATE UNIVERSITY OF NEW JERSEY, priority 2004, published 2005).

How the values were obtained:
COX-2 enzyme = molecular target: T1, COX-2 enzyme (Ovis aries, UniProt P79208); test: colorimetric COX (ovine) inhibitor screening assay, COX-2 inhibition; conditions: peaks of subfractionated paradol fraction (Method C)
T1 sequence (P79208 17-603): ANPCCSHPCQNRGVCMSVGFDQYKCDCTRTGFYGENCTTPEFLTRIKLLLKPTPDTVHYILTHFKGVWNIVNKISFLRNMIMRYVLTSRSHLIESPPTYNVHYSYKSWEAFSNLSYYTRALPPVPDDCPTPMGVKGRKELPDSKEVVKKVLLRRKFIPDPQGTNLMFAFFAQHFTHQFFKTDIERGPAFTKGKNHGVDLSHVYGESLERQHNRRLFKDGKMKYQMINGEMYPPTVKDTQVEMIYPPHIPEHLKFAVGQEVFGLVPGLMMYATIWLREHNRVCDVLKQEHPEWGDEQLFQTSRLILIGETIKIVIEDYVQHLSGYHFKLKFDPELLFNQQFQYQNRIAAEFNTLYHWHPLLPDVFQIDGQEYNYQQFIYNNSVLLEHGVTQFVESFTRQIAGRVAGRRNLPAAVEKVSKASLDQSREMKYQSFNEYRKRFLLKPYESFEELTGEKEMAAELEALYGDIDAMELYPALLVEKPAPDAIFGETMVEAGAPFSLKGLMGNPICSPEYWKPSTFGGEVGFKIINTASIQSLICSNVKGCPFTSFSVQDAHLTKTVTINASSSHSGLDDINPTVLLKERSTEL
Protocol: The anti-inflammatory extract product of Example 1 was suspended in 95 vol. % ethanol at a concentration of 1 milligram (mg) extract product per milliliter (mL) ethanol to form an A. melegueta solution. The activity of the solution was tested with a colorimetric COX (ovine) inhibitor screening assay (catalogue no. 760111, Cayman Chemical, Ann Arbor, Mich.). The screening assay measures the peroxidase activity of cyclooxygenases by monitoring the appearance of oxidized N,N,N′N′-tetramethyl-p-phenylenediamine (TMPD) at 590 nm as previously described [Kulmacz, Prostaglandins, 25:531-540 (1983)]. A (relatively) higher TMPD concentration corresponds to a greater absorbance at 590 nm, a greater peroxidase activity, and a greater COX-2 activity (corresponding to the degree of inhibition of COX-2 activity).
Three milliliters (mL) of assay buffer concentrate (as provided) was diluted with 27 mL HPLC-grade water to provide a final assay buffer (0.1M Tris-HCl, pH 8). This buffer assay solution was used to prepare heme and COX-2 enzyme assay solutions. […]
10 μl of 95 vol. % ethanol was then added to the background and negative control wells. […] The absorbance for each well was measured at 590 nm using a plate reader.
The inhibitory activity was calculated from these absorbance readings. […]

[1] = test system: carrageenan hind paw edema; test: rat hind paw edema assay, two studies (Example 4); format: in vivo, Long-Evans-derived rats; conditions: 1 h after carrageenan (positive control)
Protocol: Two studies were conducted. […] The anti-inflammatory extract product was administered to the groups at different dose protocols. Comparisons can be made relative to the negative and positive control animal groups. Groups 2 and 4 of the first and second study, and Groups 2 and 5 of the second study, received a single dose of the extract product one hour after hind paw injection of carrageenan (0.1 ml of a suspension of 1 wt. % carrageenan in […], intraplantar). Group 3 of both studies received a first dose of the extract product one hour before, and a second dose of the extract product one hour after, hind paw injection of carrageenan. […] Group 4 of the second study received a dose of the extract product one hour before administration of carrageenan. Group 5 of the first study and Group 6 of the second study received indomethacin, a commercially available nonsteroidal anti-inflammatory drug, one hour after hind paw injection of carrageenan. Indomethacin was administered as a positive control reference compound, and Groups 5 and 6 (of the first and second studies, respectively) represent positive control groups. The severity of the hind paw edema (i.e., hind paw volume) was recorded at 3 hours after, 5 hours after, and 24 hours after carrageenan administration using a plethysmometer (Ugo Basile, Italy). The hind paw volume measurements after carrageenan administration correspond to the amount of induced swelling, and a reduction in the percentage of increase in hind paw volume relative to the percentage of increase observed in hind paw volume for the negative control group corresponds to a reduction in inflammation. For example, the hind paw volume of the negative control group of the first study (Group 1) increased by about 45% whereas the hind paw volume of Group 2 (which received an Aframomum melegueta extract product) increased by only 25%.

[2] = test system: acetic acid-induced writhing; test: acetic acid-induced writhing assay; format: in vivo, mice; conditions: 100 mg/kg
Protocol: This writhing assay has been previously described [Inoue et al., Arzneimittelforschung, 41(3):235-239 (1991).] […] An aqueous solution comprising 2 vol. % Tween 80 was administered as a negative control to another group of three mice. Aspirin was administered at 100 mg/kg as a positive control to a fourth group of three mice. The number of writhings per animal group was observed during the period beginning at about five minutes after acetic acid challenge and ending at about ten minutes after acetic acid challenge. The average number of writhings per animal group is an indication of pain, e.g., inflammation-induced pain, and therefore a reduction in the number of writhings per unit time per animal group corresponds to a reduction in inflammation. The reduction in number of writhings can be expressed relative to the negative control value as a percentage of inflammation inhibition.

[3] = test system: carrageenan hind paw edema; test: rat hind paw edema assay (Example 3); format: in vivo, Long-Evans-derived rats; conditions: 150 mg/kg; 3 h after carrageenan
Protocol: Hind paw edema models have been extensively described [see, for example, […] et al. (eds.), Inflammation Protocols, pp. 115-122 (2003)] and have been accepted as in vivo models of human inflammation. […] Aspirin was administered to another group of three Long-Evans rats at 150 mg/kg dose as a positive control reference compound. The severity of the hind paw edema (i.e., the hind paw volume) was recorded 3 hours after carrageenan administration using a plethysmometer (Ugo Basile, Italy). The hind paw volume measurements correspond to the amount of induced swelling, and therefore a reduction in the swelling corresponds to a reduction in inflammation. The anti-inflammatory activity of the Aframomum melegueta extract products can be expressed as a percentage of edema reduction (relative to the negative control (i.e., full edema)).

[4] = first study Group 5: 15 mg/kg, 3 h
[5] = first study Group 5: 15 mg/kg, 5 h
[6] = first study Group 5: 15 mg/kg, 24 h
[7] = second study Group 6: 15 mg/kg, 3 h
[8] = second study Group 6: 15 mg/kg, 5 h
[9] = second study Group 6: 15 mg/kg, 24 h

## CCCCCCCC(=O)CCc1ccc(O)c(OC)c1 (single isomer, unassigned) [second peak, [6]-paradol]
COX-2 enzyme; read-out: COX-2 inhibitory activity, 1 mg/mL
  inhibition at 1000 µg/mL: 83%

## COc1ccc2c(c1)c(CC(=O)O)c(C)n2C(=O)c1ccc(Cl)cc1 [Indomethacin, indomethacin]
[1]; [4]
  Increase in rat hind paw volume after carrageenan administration: 44%
  rat hind paw volume after carrageenan administration: 1.51 ± 0.05 mL
[1]; [5]
  Increase in rat hind paw volume after carrageenan administration: 29%
  rat hind paw volume after carrageenan administration: 1.35 ± 0.08 mL
[1]; [6]
  Increase in rat hind paw volume after carrageenan administration: 12%
  rat hind paw volume after carrageenan administration: 1.18 ± 0.1 mL
[1]; [7]
  Increase in rat hind paw volume after carrageenan administration: 44%
  rat hind paw volume after carrageenan administration: 1.51 ± 0.05 mL
[1]; [8]
  Increase in rat hind paw volume after carrageenan administration: 29%
  rat hind paw volume after carrageenan administration: 1.35 ± 0.08 mL
[1]; [9]
  Increase in rat hind paw volume after carrageenan administration: 12%
  rat hind paw volume after carrageenan administration: 1.18 ± 0.1 mL

## CC(=O)Oc1ccccc1C(=O)O [aspirin]
[2]
  percentage of inflammation inhibition (writhing): 80%
[2]; 5-10 min after challenge
  average number of writhings per animal group: 3
[3]
  reduction of hind paw edema: about 43%

## CCCCCCCC(=O)CCc1ccc(O)c(OC)c1 (single isomer, unassigned) [first peak, [6]-paradol]
COX-2 enzyme; 1 mg/mL
  COX-2 inhibitory activity: 74%
